The source of these data is patent US6693081B2, “Bone stimulating factor” (Osteopharm Inc., priority 1995, dated 2004).

“Also recorded” adds a separate entry of the source.

In assay [1] the test system is male Sprague-Dawley rats. The assay can be described thus: Bone mineral apposition rate in rats, second set of experiments (NAP-2V subsequences). The note with it: for Group arithmetic mean of bone apposition rate: about 25 nmol injected in right thigh, male Sprague-Dawley rats, N=3-4, control 1.08. Format: in vivo, rat. The protocol:
In a second set of experiments, twenty-four male Sprague-Dawley rats (Charles River Laboratory) were divided into six groups of four. Each of the first group, the control group, was injected in the right thigh with 200 μl of 0.1% acetic acid solution. The rats of the other groups were each injected in the right thigh with about 200 μl of a 0.1% acetic acid solution containing about 25 nmol of a chemically synthesized polypeptide as follows:
Immediately after injection of the polypeptide (control) solution, each rat was injected in the right gluteus maximus with 200 μl of a 1 M tetracycline hydrochloride (Sigma Chemical) solution. This dosage of tetracycline is about 16 mg per kg of animal body weight.
About 48 hours later, each rat was injected in the left gluteus maximus with the same dosage of tetracycline. Twenty-four hours later, the rats were sacrificed by CO2 narcosis and the right femur taken for bone mineral apposition rate determination. One rat died during the course of the experiments.
Immediately after dissection, a bone sample was fixed in 10% formaldehyde solution at pH 7.4. Later the same day, a 1:1 H2O-acetone solution was exchanged for the formaldehyde solution. This was exchanged twice the following day with acetone. This was exchanged the following day by a 1:1 acetone-Spurr's medium solution, which was exchanged later the same day with Spurr's medium. The following day each sample was embedded in a fresh change of Spurr's medium and cured at 60° C. for 24 hours, followed by curing at 80° C. for 24 hours.
Each cured block was cut into 400 μm thick sections using a Leitz saw microtome equipped with a diamond charged blade. The relatively thick sections were ground down between two ground glass plates pre-roughened with carborundum powder to a final thickness of about 10 μm, water being used as the grinding lubricant. The thin sections were dried and mounted unstained in Permount (Fisher).
Measurements were made using a Leitz scanning light microscope photometer MPV-CD magnifying the sections 16×, as described in international patent application No. PCT/CA94/00144.

Assay [2] concerns female Sprague-Dawley rats. The assay is described as follows: Bone mineral apposition rate in rats, third set of experiments (protected polypeptides). The format is in vivo, rat. The note with it: 100 nmoles; for Group arithmetic mean of bone apposition rate: female Sprague-Dawley rats, N=3, control 1.256; for Bone stimulatory activity (in words): rats. The protocol: The polypeptide having the sequence identified as SEQ ID NO:12 has two sites susceptible to cleavage by the peptidase plasmin, between the lysine-threonine and the lysine-asparagine residues, respectively. In a third set of experiments, nine female Sprague-Dawley rats (average weight, about 300 gm) were divided into three groups of three. Each of the first group, the control group, was injected with 400 μl of buffer solution, 50 mM sodium acetate adjusted to pH 4.5 followed immediately by 200 μl of a 1M tetracycline hydrochloride solution. The rats of the second group were each injected with 400 μl of buffer containing 100 nmoles of a chemically synthesized polypeptide having the sequence identified as SEQ ID NO:17 followed immediately by 200 μl of a 1 M tetracycline hydrochloride solution. The rats of the third group were each injected with 400 μl of buffer containing 100 nmoles of a chemically synthesized polypeptide having the sequence identified as SEQ ID NO:18 followed immediately by 200 μl of a 1M tetracycline hydrochloride solution.
After about 48 hours, a second dose of tetracycline hydrochloride was administered to each rat. After about another 24 hours, rats were sacrificed by carbon dioxide narcosis.
The right femur of each animal was taken and treated, as described above, and measurements made as described above.

In assay [3] the test system is female Sprague-Dawley rats. The assay is described as follows: Dose dependence of bone mineral apposition rate in rats, fourth set of experiments. The note with it: N=4, control 1.320. Format: in vivo, rat. As for the experimental part: In a fourth set of experiments, dose dependence of the measured bone mineral apposition rate on the amount of polypeptide having SEQ ID NO:18 was evaluated. Twenty-eight female Sprague-Dawley rats (average weight, about 300 gm) were divided into seven groups of four. The rats were treated as described in the previous set of experiments except that the amount of test polypeptide varied as follows: 25, 50, 100, 200, 400 and 800 nmoles.

Assay [4] concerns male Sprague-Dawley rats. The assay is described as follows: Bone mineral apposition rate in rats, first experiments (NAP-2, NAP-2V). To be noted: 25 nmol; for Bone stimulatory effect (in words): rats; for Group arithmetic mean of bone apposition rate: subcutaneous injection, male Sprague-Dawley rats, N=5, right femur lower metaphysis, control 0.99. Format: in vivo, rat. As for the experimental part: Experiments were conducted simultaneously on three groups of male Sprague-Dawley rats, there being five rats in each group. Each rat weighed between 250 and 350 g. Each rat of the first group was given, by subcutaneous injection into the left gluteus maximus region, 200 μl of a 1% aqueous acetic acid solution containing 25 nmol (about 191 μg) of NAP-2 (SEQ ID NO:1). Each rat of the second group was similarly given 200 μl of a 1% aqueous acetic acid solution containing 25 nmol (about 207 μg) of NAP-2V (SEQ ID NO:2). Each rat of the third group, the control group, was similarly given 200 μl of 1% acetic acid solution.
Immediately following administration of the test solution, 300 μl of an aqueous solution of tetracycline hydrochloride was administered intramuscularly into the right gluteus maximus, the concentration of tetracycline being sufficient to obtain a dosage of about 24 mg/kg of rat body weight. A second dose of tetracycline hydrochloride solution was administered about 48 hours after the first dose. The rats were sacrificed about 24 hours after administration of the second dose of tetracycline.
Sections of the lower metaphysis of the right femur were used for bone measuring the bone mineral apposition rate. Processing of the bone material for measurement has been described previously. See, for example, international patent application No. PCT/CA 94/00144 published under No. WO 94/20615 on Sep. 15, 1994.

Another assay relates to G-292. The note with it: G-292 osteoblastic osteosarcoma cell line; U.S. Pat. No. 5,304,542; cited from earlier work.
In the next assay the test system is Saos-2. To be noted: Saos-2 osteoblastic osteosarcoma cell line; U.S. Pat. No. 5,304,542; cited from earlier work.

As to “NAP-2V-(11-26) (MCIKTTSQIHPKNIQS; OTHER INFORMATION: Description of Artificial Sequence: Chemically synthesized polypeptide) [SEQ ID NO: 14, Met Cys Ile Lys Thr Thr Ser Gln Ile His Pro Lys Asn Ile Gln Ser]”, the “Group arithmetic mean of bone apposition rate” value (“Group arithmetic mean” for short) in the assay with male Sprague-Dawley rats [1] turned out to be 1.07 μm per day. For the same molecule, the “Effect on observed bone (mineral) apposition rate (in words)” value (“Effect on observed bone” for short) was “do not appear to enhance bone growth” in the assay with male Sprague-Dawley rats [1] (about 25 nmol, rats, listed as 14) and “no effect” in the assay with male Sprague-Dawley rats [1] (about 25 nmol, rats, listed as NAP-2V-(11-26)).
In the case of “SEQ ID NO: 17: Protected NAP-2V-(13-26; gln^25→glu^25): Xaa Lys Thr Thr Ser Gly Ile His Pro Lys Asn Ile Glu Xaa; N-acetyl isoleucine, serinamide (Ac-IKTTSGIHPKNIES-NH2; also: protecting groups)”, in assay [2], the “Group arithmetic mean” value came to 1.859 μm/d and the “Bone stimulatory activity (in words)” value is on record as “bond stimulatory activity”.
As to “SEQ ID NO: 18: Protected NAP-2V-(15-22): Xaa Thr Ser Gly Ile His Pro Xaa; Xaa1 N-acetyl threonine, Xaa8 lysinamide (Ac-TTSGIHPK-NH2; also: protecting groups)”, the “Bone apposition rate, mean” value was 1.686 μm/day in assay [3] (25 nmol); 1.753 μm/day in assay [3] (50 nmol); 1.907 μm/day in assay [3] (100 nmol); 2.209 μm/day in assay [3] (200 nmol); 2.123 μm/day in assay [3] (400 nmol); 2.139 μm/day in assay [3] (800 nmol). The “Group arithmetic mean” value in assay [2] is 2.406 μm/d. In addition, in assay [2], the “Bone stimulatory activity (in words)” value is given as “greater bone stimulatory activity; also recorded: bond stimulatory activity”.
For the molecule “NAP-2V-(10-26) (CMCIKTTSGIHPKNIQS; OTHER INFORMATION: Description of Artificial Sequence: Chemically synthesized polypeptide) [SEQ ID NO: 13, Cys Met Cys Ile Lys Thr Thr Ser Gly Ile His Pro Lys Asn Ile Gln Ser]”, in the assay with male Sprague-Dawley rats [1], the “Group arithmetic mean” value was determined as 1.18 μm per day. Also, the “Effect on observed bone” value with male Sprague-Dawley rats [1] (about 25 nmol, rats) is recorded as “small increase”.
Taken in the same sequence, the figures for “NAP-2V-(1-26) (DSDLYAELRCMCIKTTSGIHPKNIQS; OTHER INFORMATION: Description of Artificial Sequence: Chemically synthesized polypeptide) [SEQ ID NO: 11]” were 1.47 μm per day and “stimulate bone growth; also recorded: increase the observed bone apposition rate”.
As to “NAP-2V-(13-26; gln^25→ glu^25) (IKTTSGIHPKNIES; OTHER INFORMATION: Description of Artificial Sequence: Chemically synthesized polypeptide) [SEQ ID NO: 12, Ile Lys Thr Thr Ser Gly Ile His Pro Lys Asn Ile Glu Ser]”, the “Group arithmetic mean” value with male Sprague-Dawley rats [1] was 1.70 μm per day. Besides, the “Effect on observed bone” value in the assay on male Sprague-Dawley rats [1] (about 25 nmol, rats; gln^25→glu^25)) was “stimulate bone growth; also recorded: greater activity; also recorded: increase the observed bone apposition rate”.
Turning to “NAP-2V-(12-26) (CIKTTSGIHPKNIQS; OTHER INFORMATION: Description of Artificial Sequence: Chemically synthesized polypeptide) [SEQ ID NO: 15, Cys Ile Lys Thr Thr Ser Gly Ile His Pro Lys Asn Ile Gln Ser]”, in the assay with male Sprague-Dawley rats [1], the “Group arithmetic mean” value is 1.04 μm per day. Besides, the “Effect on observed bone” value with male Sprague-Dawley rats [1] (about 25 nmol, rats, listed as 15) is recorded as “do not appear to enhance bone growth”; in the assay on male Sprague-Dawley rats [1] (about 25 nmol, rats, listed as NAP-2V-(12-26)) it was “no effect”.

B1: NAP-2V (peptide)
chain: DSDLYAELRCMCIKTTSGIHPKNIQSLEVIGKGTHCNQVEVIATLKDGRKICLDPDAPRIKKIVQKKLAGDESAD
modifications: OTHER INFORMATION: Description of Artificial Sequence: Chemically synthesized polypeptide
notes: variant of NAP-2, 75 amino acids, chemically synthesized polypeptide
As for B1, in the assay with male Sprague-Dawley rats [4], the “Bone stimulatory effect (in words)” value is listed as “bone stimulatory effects” and the “Group arithmetic mean” value is 1.28 μm/d. For the same molecule, the “Bone stimulatory effect (in words)” value in the assay with male Sprague-Dawley rats [4] (listed as SEQ ID NO:2) is “stimulate bone growth”.

B2: Platelet factor 4 (protein)
chain: EAEEDGDLQCLCVKTTSQVRPRHITSLEVIKAQPHCPTAQLIATLKNGRKICLDLEAPLYKKIIKKLLES
modifications: OTHER INFORMATION: Description of Artificial Sequence: Chemically synthesized polypeptide
notes: seventy amino acid polypeptide
For the molecule B2, the “Effect on cell proliferation (in words)” value with G-292 and in the assay on Saos-2 was “inhibit proliferation” each time.

B3: NAP-2 (peptide)
chain: AELRCMCIKTTSGIHPKNIQSLEVIGKGTHCNQVEVIATLKDGRKICLDPDAPRIKKIVQKKLAGDESAD
modifications: OTHER INFORMATION: Description of Artificial Sequence: Chemically synthesized polypeptide
With B3, the “Bone stimulatory effect (in words)” value in the assay on male Sprague-Dawley rats [4] is recorded as “bone stimulatory effects”; in the assay with male Sprague-Dawley rats [4] (listed as SEQ ID NO:1), “stimulate bone growth”. Moreover, the “Group arithmetic mean” value in the assay on male Sprague-Dawley rats [4] worked out at 1.23 μm/d.
